The results in this text go back to patent US20250163057A1, “DCN-1 MODULATING COMPOUNDS AND METHODS OF USE THEREOF” (Cellarity, Inc., priority 2023, published 2025).

Test [1] concerns the target DCN1 (DCUND1) protein PONY domain (Homo sapiens (Human), UniProt Q96GG9). Briefly: TR-FRET assay, DCN1 binding with FAM-labeled probe. A digest of the protocol:
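Tb-DCN1 PONY domain (E. coli, biotin/streptavidin-Tb); FAM-labelled non-covalent inhibitor probe; TritonX buffer, 200 mM NaCl; 5 nM DCN1 + 20 nM probe or 0.31 nM DCN1 + 900 nM total probe; 0.1% DMSO; TR-FRET read 1, 5, 24 hrs.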

In another test the target is DCN1 protein (Homo sapiens (Human), UniProt Q96GG9). Briefly: Intact Protein MS Analysis with the RapidFire-TOF System (covalent adduct formation). Type of test: binding. The settings on record: MS Emax; 400 nM DCN1, 3 hours at room temperature. How it is done:
An MS assay was performed to evaluate the ability of the compounds to covalently modify DCN-1.
DCN1 protein, His-TEV-DCN1, were expressed in E. Coli. The His-tagged protein was first purified with an Ni-NTA column. The His-tag was cleaved using His-tag TEV protease and the His-tags were removed using a second Ni-NTA column. Protein purity was verified with SDS-PAGE and intact MS. DCN1 was dissolved in a buffer containing 25 mM Tris-HCl, 200 mM NaCl, and 1 mM DTT at 400 nM. 11 concentrations of compounds were added to the DCN1 solution and incubated at room temperature for 3 hours, unless otherwise specified. The reaction plates were quenched by adding 0.2% formic acid. […] The cartridge was re-equilibrated with loading buffer for 1 second before collection of the next sample. The Q-TOF was operated in TOF-only positive ionization mode set to the following parameters: Gas Temp=350 C, Drying Gas=7 l/min, Nebulizer=50 psi, Sheath Gas Temp=400 C, Sheath Gas Flow=12 l/min, Vcap=4000 V, Nozzle Voltage=1000 V, Fragmentor=125 V, Skimmer=65 V and Oct 1 RF Vpp=750V. Raw MS data files were deconvoluted and analyzed using the Agilent MassHunter Bioconfirm software package to identify both parent protein and expected compound adduct mass signatures.

Setting [2] is: 24 hr after treatment with compound, read-out: TR FRET IC50 24 hr.
[3] abbreviates: TR FRET IC50 1 hr (nM), 1 hr after treatment with compound.
Setting [4] is: read-out: TR FRET IC50 1 hr, 1 hr after treatment with compound.

Where two headings read alike, the source gives them in different places.

Chain of DCN1 protein (Q96GG9 whole entry): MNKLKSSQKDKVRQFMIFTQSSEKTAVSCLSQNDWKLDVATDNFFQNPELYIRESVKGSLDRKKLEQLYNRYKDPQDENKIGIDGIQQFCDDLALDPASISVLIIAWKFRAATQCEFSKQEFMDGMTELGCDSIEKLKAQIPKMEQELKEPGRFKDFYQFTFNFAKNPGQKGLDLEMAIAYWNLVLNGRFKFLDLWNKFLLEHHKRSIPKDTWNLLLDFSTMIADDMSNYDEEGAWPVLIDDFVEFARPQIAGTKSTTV
Chain of DCN1 (DCUND1) protein PONY domain (Q96GG9 60-248): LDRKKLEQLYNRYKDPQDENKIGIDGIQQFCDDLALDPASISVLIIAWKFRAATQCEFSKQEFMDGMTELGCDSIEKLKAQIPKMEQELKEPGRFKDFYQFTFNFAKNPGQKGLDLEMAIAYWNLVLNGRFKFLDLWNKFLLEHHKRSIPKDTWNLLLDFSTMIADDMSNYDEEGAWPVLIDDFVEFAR

On to `CCN1C(=O)[C@@H](NC(=O)c2cccc(C(F)(F)F)c2)[C@@H](c2ccc(F)cc2)c2c(C/C=C/C(=O)O)nn(-c3ccccc3)c21` (racemic) [Compound I-83, rac-(E)-4-((4R,5R)-7-ethyl-4-(4-fluorophenyl)-6-oxo-1-phenyl-5-(3-(trifluoromethyl)benzamido)-4,5,6,7-tetrahydro-1H-pyrazolo[3,4-b]pyridin-3-yl)but-2-enoic acid], for which the 50% inhibitory concentration (IC50) in test [1] (setting [2]) and in test [1] (setting [3]) was 1000 to 3000 nM in each case. For the same compound, the “% Adduct Formation” value at DCN1 protein was “+ (MS Emax % adduct formation greater than or equal to 0.0 and less than or equal to 30.0)”.

Regarding `CCN1C(=O)[C@@H](NC(=O)c2cccc(C(F)(F)F)c2)[C@@H](c2ccc(F)cc2)c2c(CN(C)C(=O)[C@H](C)Cl)nn(-c3ccccc3)c21` (stereo in doubt) [Compound I-30], the values for the IC50 in test [1] (setting [2]) and in test [1] (setting [4]) were 1000 to 3000 nM and more than 3000 nM, respectively. For the same compound, the “% Adduct Formation” value at DCN1 protein was “+ (MS Emax % adduct formation greater than or equal to 0.0 and less than or equal to 30.0)”.

Take `CCN1C(=O)[C@@H](NC(=O)c2cccc(C(F)(F)F)c2)[C@@H](c2ccc(F)cc2)c2c(CN(C)C(=O)[C@H](C)Cl)nn(-c3ccccc3)c21` (stereo in doubt) [Compound I-33]: the IC50 in test [1] (setting [2]) and in test [1] (setting [3]) was 1000 to 3000 nM in each case. For the same compound, the “% Adduct Formation” value on DCN1 protein is “+ (MS Emax % adduct formation greater than or equal to 0.0 and less than or equal to 30.0)”.

Turning to `CCN1C(=O)[C@@H](NC(=O)c2cccc(C(F)(F)F)c2)[C@@H](c2ccc(F)cc2)c2c(C(=O)N3CCCC[C@@H]3C#N)nn(-c3ccccc3)c21` [Compound I-121], the concentration for half-maximal inhibition (IC50) in test [1] (setting [2]) and in test [1] (setting [4]) was not above 200 nM in each case. Further, the “% Adduct Formation” value on DCN1 protein was “++ (MS Emax % adduct formation greater than 30.0 and less than or equal to 80.0)”.

As to `C/C=C/C(=O)N[C@@H](C)c1nn(-c2ccccc2)c2c1[C@H](c1ccc(F)cc1)[C@H](NC(=O)c1cccc(C(F)(F)F)c1)C(=O)N2CC` (mixture of isomers) [Compound I-23], the IC50 in test [1] (setting [2]) and in test [1] (setting [3]) was 1000 to 3000 nM each time. Moreover, on DCN1 protein, the “% Adduct Formation” value was “+ (MS Emax % adduct formation greater than or equal to 0.0 and less than or equal to 30.0)”.

For `CC#CC(=O)N(C)Cc1nn(-c2ccccc2)c2c1[C@H](c1ccc(F)cc1)[C@H](NC(=O)c1cccc(C(F)(F)F)c1)C(=O)N2CC` (racemic) [Compound I-90], the IC50 in test [1] (setting [2]) and in test [1] (setting [4]) was more than 3000 nM in each case. Also, the “% Adduct Formation” value at DCN1 protein is “+ (MS Emax % adduct formation greater than or equal to 0.0 and less than or equal to 30.0)”.

Turning to `CCN1C(=O)[C@@H](NC(=O)c2cccc(C(F)(F)F)c2)[C@@H](c2ccc(F)cc2)c2c(C/C=C/C(=O)OC)nn(-c3ccccc3)c21` (racemic) [Compound I-131, rac-methyl (E)-4-((4R,5R)-7-ethyl-4-(4-fluorophenyl)-6-oxo-1-phenyl-5-(3-(trifluoromethyl)benzamido)-4,5,6,7-tetrahydro-1H-pyrazolo[3,4-b]pyridin-3-yl)but-2-enoate], the values for the IC50 in test [1] (setting [2]) and in test [1] (setting [3]) were 200 to 1000 nM and 1000 to 3000 nM, respectively. For the same compound, the “% Adduct Formation” value on DCN1 protein was “+ (MS Emax % adduct formation greater than or equal to 0.0 and less than or equal to 30.0)”.

In the case of `C=CS(=O)(=O)Nc1nn(-c2ccccc2)c2c1[C@H](c1ccc(F)cc1)[C@H](NC(=O)c1cccc(C(F)(F)F)c1)C(=O)N2CC` (racemic) [Compound I-187], on DCN1 protein, the “% Adduct Formation” value was “+++ (MS Emax % adduct formation greater than 80.0 and less than or equal to 100.0)”.

On to `CCN1C(=O)[C@@H](NC(=O)c2cccc(C(F)(F)F)c2)[C@@H](c2ccc(F)cc2)c2c(CNC(=O)/C=C/CN3CCOCC3)nn(-c3ccccc3)c21` (racemic) [Compound I-183], for which, on DCN1 protein, the “% Adduct Formation” value was “+ (MS Emax % adduct formation greater than or equal to 0.0 and less than or equal to 30.0)”.
